Pest or weed control and inhibition data for nine molecules are collected here from US9808003B2, “Herbicidally active 2-(substituted-phenyl)-cyclopentane-1,3-dione compounds and derivatives thereof” (Syngenta Limited, priority 2013, dated 2017).

Common to all, as to format: in vivo
The subject of test [1] is Echinochloa crus-galli (ECHCG). As to the kind of experiment: Test 1A glasshouse assay, post-emergence herbicidal activity. To be noted: Echinochloa crus-galli, 312 h, application rate 250 g/ha, 13 days after application, visual (100%=total damage; 0%=no damage), read-out: Post-emergence Herbicidal Activity (% Phytotoxicity) ECHCG. The method in brief:
(§1)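 Test species were sown in pots of standard soil and cultivated for 8 days at 24/16 °C (day/night) with 14 h light and 65% humidity. Plants were next sprayed with the formulated active ingredient (acetone/water 50:50, 0.5% Tween 20). Damage was rated visually as % phytotoxicity 13 days later.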

Test [2] concerns Avena fatua (AVEFA). The test is described as above. The settings on record: Avena fatua, 312 h, application rate 250 g/ha, 13 days after application, visual (100%=total damage; 0%=no damage), read-out: Post-emergence Herbicidal Activity (% Phytotoxicity) AVEFA. The method in brief:
as §1

For test [3], the system named is Alopecurus myosuroides (ALOMY). Described as above. To be noted: Alopecurus myosuroides, 312 h, application rate 250 g/ha, 13 days after application, visual (100%=total damage; 0%=no damage), read-out: Post-emergence Herbicidal Activity (% Phytotoxicity) ALOMY. Put shortly:
as §1

Test [4] deals with Lolium perenne (LOLPE). The test is described as above. The settings on record: Lolium perenne, 312 h, application rate 250 g/ha, 13 days after application, visual (100%=total damage; 0%=no damage), read-out: Post-emergence Herbicidal Activity (% Phytotoxicity) LOLPE. The method in brief:
as §1

Test [5] relates to Echinochloa crus-galli (ECHCG). The experiment in a line: Test 1A glasshouse assay, pre-emergence herbicidal activity. To be noted: 312 h, 13 days after application, read-out: Pre-emergence herbicidal activity (% phytotoxicity) ECHCG. How it is done: (§2) Seeds of a variety of test species were sown in standard soil in pots. After cultivation for one day (pre-emergence) or after 8 days cultivation (post-emergence) under controlled conditions in a glasshouse (at 24/16° C., day/night; 14 hours light; 65% humidity), the plants were sprayed with an aqueous spray solution derived from the formulation of the technical active ingredient in acetone/water (50:50) solution containing 0.5% Tween 20 (polyoxyethelyene sorbitan monolaurate, CAS RN 9005-64-5). The test plants were then grown under controlled conditions in a glasshouse (at 24/16° C., day/night; 14 hours light; 65% humidity) and watered twice daily. 13 days after application of the test herbicide, for pre- and post-emergence, the test was evaluated visually for percentage phytotoxicity to the plant (where 100%=total damage to plant; 0%=no damage to plant).
(§3) Test plants: Lolium perenne (LOLPE), Alopecurus myosuroides (ALOMY), Echinochloa crus-galli (ECHCG), and Avena fatua (AVEFA); these are all grassy monocotyledonous weeds.

Test [6] has as its system Avena fatua (AVEFA). The test is described as above. To be noted: 312 h, 13 days after application, read-out: Pre-emergence herbicidal activity (% phytotoxicity) AVEFA. How it is done:
as §2, §3

The test system of test [7] is Alopecurus myosuroides (ALOMY). Described as above. To be noted: 312 h, 13 days after application, read-out: Pre-emergence herbicidal activity (% phytotoxicity) ALOMY. How it is done:
as §2, §3

Test [8] concerns Lolium perenne (LOLPE). Described as above. The settings on record: 312 h, 13 days after application, read-out: Pre-emergence herbicidal activity (% phytotoxicity) LOLPE. How it is done:
as §2, §3

Regarding `Cc1cc(C)c(C2C(=O)CC(CCNC(=O)c3ccccn3)C2=O)c(C)c1` (stereo not drawn) [Compound A3], the pest or weed control at 250 g/ha in test [1] amounted to 100%; with Avena fatua (AVEFA) [2], 100%; in test [3], 90%; in the test with Lolium perenne (LOLPE) [4], 100%. Also, the inhibition at 250 g/ha in test [5] is 100%; with Avena fatua (AVEFA) [6] it was 90%; in test [7], 90%; in the test on Lolium perenne (LOLPE) [8], 100%.
With `Cc1cc(-c2ccc(F)cc2)cc(C)c1C1C(=O)CC(CCNC(=O)c2ccccn2)C1=O` (stereo not drawn) [Compound A32], the pest or weed control at 250 g/ha in test [1] turned out to be 100%; in the test with Avena fatua (AVEFA) [2], 100%; in test [3], 90%; in the test on Lolium perenne (LOLPE) [4], 100%. The inhibition at 250 g/ha in test [5] came to 100%; in the test with Avena fatua (AVEFA) [6] it was 80%; in test [7], 100%; in the test with Lolium perenne (LOLPE) [8] it was 100%.
Regarding `Cc1cc(C)c(C2C(=O)CC(CCNC(=O)c3ccccc3)C2=O)c(C)c1` (stereo not drawn) [Compound A1, N-[2-[2,4-dioxo-3-(2,4,6-trimethylphenyl)cyclopentyl]ethyl]-benzamide], the pest or weed control at 250 g/ha turned out to be 100% in test [1], 90% in the test with Avena fatua (AVEFA) [2], 80% in test [3] and 100% in the test on Lolium perenne (LOLPE) [4]. The inhibition at 1000 g/ha in test [5] (1000 g/ha) was found to be 100%; with Avena fatua (AVEFA) [6] (1000 g/ha), 70%; in test [7] (1000 g/ha), 90%; in the test on Lolium perenne (LOLPE) [8] (1000 g/ha) it was 100%.
For `Cc1cc(C)c(C2C(=O)CC(CCNC(=O)C(C)(C)C)C2=O)c(C)c1` (stereo not drawn) [Compound A2], the pest or weed control at 250 g/ha in test [1] turned out to be 80%; in the test on Avena fatua (AVEFA) [2], 80%; in test [3] it was 90%; in the test with Lolium perenne (LOLPE) [4], 100%. Moreover, the inhibition at 250 g/ha in test [5] came to 70%; in the test on Avena fatua (AVEFA) [6], 70%; in test [7] it was 90%; with Lolium perenne (LOLPE) [8], 100%.
As for `Cc1cc(C)c(C2C(=O)CC(CCNC(=O)c3c(Cl)c(C)nn3C)C2=O)c(C)c1` (stereo not drawn) [Compound A145], the pest or weed control at 250 g/ha in test [1] was 90%; with Avena fatua (AVEFA) [2] it was 90%; in test [3], 100%; with Lolium perenne (LOLPE) [4], 90%. The inhibition at 250 g/ha in test [5] is 90%; in the test on Avena fatua (AVEFA) [6] it was 40%; in test [7], 90%; in the test with Lolium perenne (LOLPE) [8], 100%.
As to `CC#Cc1cc(C)c(C2C(=O)CC(CCNC(=O)c3ccccn3)C2=O)c(C)c1` (stereo not drawn) [Compound A33], the pest or weed control at 250 g/ha in test [1] turned out to be 100%; in the test with Avena fatua (AVEFA) [2] it was 100%; in test [3], 90%; with Lolium perenne (LOLPE) [4], 100%. Besides, the inhibition at 250 g/ha in test [5] came out at 100%; with Avena fatua (AVEFA) [6] it was 80%; in test [7], 90%; in the test with Lolium perenne (LOLPE) [8] it was 100%.
In the case of `Cc1cc(C)c(C2C(=O)CC(CCNC(=O)c3c(Cl)nn(C)c3Cl)C2=O)c(C)c1` (stereo not drawn) [Compound A159], the pest or weed control at 250 g/ha turned out to be 90% in test [1], 90% in the test with Avena fatua (AVEFA) [2], 100% in test [3] and 100% in the test on Lolium perenne (LOLPE) [4]. For the same molecule, the inhibition at 250 g/ha came out at 100% in test [5], 80% in the test with Avena fatua (AVEFA) [6], 90% in test [7] and 100% with Lolium perenne (LOLPE) [8].
Take `Cc1cc(C)c(C2C(=O)CC(CCNC(=O)c3ccc(F)cc3)C2=O)c(C)c1` (stereo not drawn) [Compound A19]: the pest or weed control at 250 g/ha turned out to be 100% in test [1], 70% in the test with Avena fatua (AVEFA) [2], 80% in test [3] and 100% with Lolium perenne (LOLPE) [4]. Also, the inhibition at 250 g/ha in test [5] came out at 100%; in the test with Avena fatua (AVEFA) [6], 50%; in test [7] it was 90%; in the test with Lolium perenne (LOLPE) [8], 100%.
`Cc1cc(C)c(C2C(=O)CC(CCNC(=O)C3CCCCC3)C2=O)c(C)c1` (stereo not drawn) [Compound A13]: the pest or weed control at 250 g/ha in test [1] was 100%; in the test on Avena fatua (AVEFA) [2], 70%; in test [3] it was 70%; with Lolium perenne (LOLPE) [4] it was 90%. In addition, the inhibition at 250 g/ha in test [5] came out at 100%; in the test on Avena fatua (AVEFA) [6], 80%; in test [7] it was 80%; with Lolium perenne (LOLPE) [8] it was 90%.
